Reference: patent publication US8609083B1, “Method for controlling fungal pathogen with bacterial metabolite” (The United States of America, as represented by the …, priority 2007, dated 2013)

Tested on: F. effusum
Test: Suppression of F. effusum sporulation on pecan terminal shoots
Format: in vivo, Fusicladosporium effusum
Conditions: 72 hours at 25° C.; for suppression of F. effusum sporulation, Abbott's formula relative to the acetone control: undiluted metabolites or fungicide products
Experimental: Dormant twigs with spore lesion constitute a primary source of scab infestation in pecan orchards. Scab disbursal via twig lesion sporulation occurs in early spring when temperatures are optimal. […] The shoots were selected for uniformity in diameter, cut into 5 cm segments, and placed into 1.5×10 cm test tubes.
Pecan shoots were sonicated for 30 minutes in 6 ml of 1% TWEEN 20 solution (polyoxyehtylene (20) sorbitan monolaurate). The number of spores released per lesion was counted via a hemocytometer. […]. A portion of the shoots were sonicated and counted prior to exposure to fungicidal treatments to verify that the shoots had not sporulated. The initial shoots lesions were designated as the baseline treatment.
Shoots were exposed to the following fungicidal treatments: undiluted metabolites derived from either P. luminescens (Hb) or X. bovienii (SN), and three chemical fungicide products used for control of F. effusum, i.e., dodine (Dodine 65W, 65% active ingredient, wettable powder, Platte Chemical Co. Greeley, Colo.), fenbuconazole (ENABLE 2F, 240 grams/liter active ingredient, flowable, Dow AgroSciences, Indianapolis Ind.), and triphenyltin hydroxide (SUPERTIN, 80% active ingredient, wettable powder, Griffin L. L. C., Valdosta, Ga.). The bacteria P. luminescens (Hb) was isolated from Heterorhabditis bacteriophora Poinar. The bacteria X. bovienii (SN) was isolated from Steinernema feltiae (Filipjev).
The shoots were also exposed to a water control and acetone control. Acetone was used as a solvent for the metabolites. The treatments were applied using an airbrush sprayer. The shoots were incubated at 25° C. for 72 hours, and exposed to sonification and quantification of spores. Ten replicate shoots for each treatment and the experiment was repeated once.

| Compound | sporulation of F. effusum on pecan shoots relative to the acetone or water control (FIG. 3) | suppression of F. effusum sporulation, Abbott's formula relative to the acetone control |
| --- | --- | --- |
| [OH][Sn]([c]1ccccc1)([c]1ccccc1)[c]1ccccc1 [triphenyltin hydroxide] | No effect was detected | – |
| CCCCCCCCCCCCNC(=N)N [dodine] | – | 49.6% |
| N#CC(CCc1ccc(Cl)cc1)(Cn1cncn1)c1ccccc1 (stereo not drawn) [fenbuconazole] | – | 80.4% |
